{"source": "paper PMC5884652", "about": "“New antimicrobial peptide kills drug-resistant pathogens without detectable resistance” (Oncotarget, 2018)", "key": {"P. aeruginosa 3543": {"system": "P. aeruginosa 3543", "assay": "microbe, parasite or virus in culture", "assay_type": "cell-based, Pseudomonas aeruginosa", "settings": "pH (I or II) not given; 10 mM sodium phosphate buffer, 10% LB; 37° C, 24 h; mean of 3 experiments", "description": "(§1) The method for peptide synthesis has been described in detail previously. E. coli ATCC 25922 (LB media), P. aeruginosa ATCC 15692 (NB+0.5% NaCl media), Listeria monocytogenes ATCC 3710 (LB media), Staphylococcus epidermidis ATCC 12228 (LB media), and S. aureus ATCC 29213 (TSB media) were obtained from the American Type Culture Collection (Manassas, VA, USA). Bacillus subtilis KCTC 1998 (LB media), Salmonella typhimurium KCTC 1926 (NB media), and Proteus vulgaris KCTC 2433 (NB media) were obtained from the Korean Collection for Type Cultures (Jeollabuk-do, Korea). E. coli CCARM 1238 was received from the Culture Collection of Antibiotic Resistant Microbes at Seoul Women’s University, Korea. Drug-resistant P. aeruginosa 3543, 3904, 3547, and 4007 and S. aureus 3126, 0027, 5157, 1635, 4761, 5159, 3359, 2122, 1630, 1870, 3511, 5156, and 3518 were resistant strains isolated from patients with otitis media in a Chonnam National University’s hospital.\n(§2) The antibacterial activities of AMPs (melittin, clavaspirin, and its analogs) and conventional antibiotic drugs (erythromycin, gentamicin, ampicillin, and piperacidin) were determined using microdilution assays. Bacterial cells were cultured at 37° C in appropriate culture media at pH 5.5 or pH 7.4 until collection during the mid-log phase and suspended in 10 mM sodium phosphate buffer (pH 5.5 or pH 7.4) supplemented with 10% culture medium. Thereafter, 2× serial dilutions of each peptide (0.25–128 μM) or antibiotic (0.25–256 μM) were added to sterile 96-well plates, and aliquots of cell suspension (5 × 10^5 colony forming units (cfu)/mL) were seeded into each well. The samples were then incubated at 37° C for 24 h. At the end of the incubation, the minimum inhibitory concentrations (MICs) of the peptides were determined using a VERSA Max microplate reader (Molecular Devices Co., Sunnyvale, CA, USA) at a wavelength of 600 nm. […] MIC values were calculated as the mean of 3 independent experiments conducted in triplicate."}, "P. aeruginosa 3547": {"system": "P. aeruginosa 3547", "assay": "microbe, parasite or virus in culture", "assay_type": "cell-based, Pseudomonas aeruginosa", "settings": "pH (I or II) not given; 10 mM sodium phosphate buffer, 10% LB; 37° C, 24 h; mean of 3 experiments", "description": "as §1, §2"}, "P. aeruginosa 3904": {"system": "P. aeruginosa 3904", "assay": "microbe, parasite or virus in culture", "assay_type": "cell-based, Pseudomonas aeruginosa", "settings": "pH (I or II) not given; 10 mM sodium phosphate buffer, 10% LB; 37° C, 24 h; mean of 3 experiments", "description": "as §1, §2"}, "P. aeruginosa 4007": {"system": "P. aeruginosa 4007", "assay": "microbe, parasite or virus in culture", "assay_type": "cell-based, Pseudomonas aeruginosa", "settings": "pH (I or II) not given; 10 mM sodium phosphate buffer, 10% LB; 37° C, 24 h; mean of 3 experiments", "description": "as §1, §2"}, "E. coli ATCC 25922": {"system": "E. coli ATCC 25922", "assay_type": "cell-based, Escherichia coli", "settings": "10 mM sodium phosphate buffer, 10% LB, 37° C, 24 h, mean of 3 experiments", "description": "as §1, §2"}, "P. aeruginosa ATCC 15692": {"system": "P. aeruginosa ATCC 15692", "assay_type": "cell-based, Pseudomonas aeruginosa", "settings": "10 mM sodium phosphate buffer, 10% LB, 37° C, 24 h, mean of 3 experiments", "description": "as §1, with “E. coli ATCC 25922 (LB media), P. aeruginosa ATCC 15692 (NB+0.5% NaCl media), Listeria monocytogenes ATCC 3710 (LB media), Staphylococcus epidermidis ATCC 12228 (LB media), and S. aureus ATCC 29213 (TSB media) were obtained from the American Type Culture Collection (Manassas, VA, USA).” left out\nas §2, with “Bacterial cells were cultured at 37° C in appropriate culture media at pH 5.5 or pH 7.4 until collection during the mid-log phase and suspended in 10 mM sodium phosphate buffer (pH 5.5 or pH 7.4) supplemented with 10% culture medium.” left out"}, "[1]": {"system": "Bacillus subtilis KCTC 1998", "assay_type": "cell-based", "settings": "10 mM sodium phosphate buffer, 10% LB, 37° C, 24 h, mean of 3 experiments", "description": "as §1, §2"}, "[2]": {"system": "Listeria monocytogenes ATCC 3710", "assay_type": "cell-based", "settings": "10 mM sodium phosphate buffer, 10% LB, 37° C, 24 h, mean of 3 experiments", "description": "as §1, §2"}, "[3]": {"system": "Staphylococcus epidermidis ATCC 12228", "assay_type": "cell-based", "settings": "10 mM sodium phosphate buffer, 10% LB, 37° C, 24 h, mean of 3 experiments", "description": "as §1, §2"}, "S. aureus ATCC 29213": {"system": "S. aureus ATCC 29213", "assay_type": "cell-based, Staphylococcus aureus", "settings": "10 mM sodium phosphate buffer, 10% LB, 37° C, 24 h, mean of 3 experiments", "description": "as §1, with “E. coli ATCC 25922 (LB media), P. aeruginosa ATCC 15692 (NB+0.5% NaCl media), Listeria monocytogenes ATCC 3710 (LB media), Staphylococcus epidermidis ATCC 12228 (LB media), and S. aureus ATCC 29213 (TSB media) were obtained from the American Type Culture Collection (Manassas, VA, USA).” left out\nas §2"}, "[4]": {"system": "Proteus vulgaris KCTC 2433", "assay_type": "cell-based", "settings": "10 mM sodium phosphate buffer, 10% LB, 37° C, 24 h, mean of 3 experiments", "description": "as §1, with “Bacillus subtilis KCTC 1998 (LB media), Salmonella typhimurium KCTC 1926 (NB media), and Proteus vulgaris KCTC 2433 (NB media) were obtained from the Korean Collection for Type Cultures (Jeollabuk-do, Korea).” left out\nas §2"}, "[5]": {"system": "Salmonella typhimurium KCTC 1926", "assay_type": "cell-based", "settings": "10 mM sodium phosphate buffer, 10% LB, 37° C, 24 h, mean of 3 experiments", "description": "as §1, with “Bacillus subtilis KCTC 1998 (LB media), Salmonella typhimurium KCTC 1926 (NB media), and Proteus vulgaris KCTC 2433 (NB media) were obtained from the Korean Collection for Type Cultures (Jeollabuk-do, Korea).” left out\nas §2"}, "[6]": {"system": "human red blood cells (hRBCs)", "assay": "Hemolysis", "assay_type": "cell-based", "settings": "PBS buffer containing 8% hRBCs, 1 h, 37° C, absorbance 414 nm, triplicate", "experimental": "Fresh human red blood cells (hRBCs) from healthy donors were centrifuged at 800 × g and washed with phosphate-buffered saline (PBS) until the supernatant was clear. Twofold serial dilutions of the peptides in PBS were added to a 96-well plate, after which the hRBCs were added to obtain a final concentration of 8% (vol/vol). The samples were then incubated with mild agitation for 1 h at 37° C. The samples were then centrifuged at 800 × g for 10 min, and the absorbance of the supernatant was measured at 414 nm. All the measurements were performed in triplicate, and the percentages of hemolysis were calculated using equation 1: % hemolysis=[(A414 in peptide solution−A414 in PBS)/(A414 in […]−A414 in PBS)]×100 (1)\nWhere 100% hemolysis was defined as the absorbance measured from hRBCs exposed to 1% Triton X-100 and zero hemolysis was characterized using hRBCs alone in PBS [40]."}, "[7]": {"system": "HaCaT (human keratinocyte) cells", "assay": "Cytotoxicity, MTT assay", "assay_type": "cell-based", "settings": "DMEM containing 10% FBS and 1% PS, 24 h, 37° C", "experimental": "To examine the cytotoxic effects of the peptides, HaCaT (human keratinocyte) cells were cultured in Dulbecco’s modified Eagle’s medium (DMEM) supplemented with antibiotics (100 U/ml penicillin and 100 μg/ml streptomycin) and 10% fetal calf serum at 37° C in a humidified chamber under a 5% CO2 atmosphere. Growth inhibition was evaluated using 3-(4, 5-dimethylthizol-2-yl)-2, 5-diphenyltetrazolium bromide (MTT) assays to measure cell viability. After cells were seeded into a 96-well plate at a density of 2 × 10^4/well and incubated for 24 h, twofold serial dilutions of each peptide in DMEM were added to the wells, and the cells were incubated for an additional 24 h at 37° C. Thereafter, 10 μl of MTT (5 mg/ml) was added to each well, and the plate was incubated for 4 h. The supernatants were then removed, and 50 μl of DMSO was added to each well to dissolve any remaining precipitate. Finally, the absorbance at 570 nm was measured using a microtiter reader."}}, "note": "Where two headings read alike, the source gives them in different places. Ends that are not written are not given here.", "data": [{"compound": "CCN1CCN(C(=O)N[C@@H](C(=O)N[C@@H]2C(=O)N3[C@@H]2SC(C)(C)[C@@H]3C(=O)O)c2ccccc2)C(=O)C1=O", "note": "[piperacidin]", "values": [{"measurement": "MIC", "setting": "P. aeruginosa 3543", "value": ">800", "unit": "µM"}, {"measurement": "MIC", "setting": "P. aeruginosa 3547", "value": 200, "unit": "µM"}, {"measurement": "MIC", "setting": "P. aeruginosa 3904", "value": ">800", "unit": "µM"}, {"measurement": "MIC", "setting": "P. aeruginosa 4007", "value": ">800", "unit": "µM"}]}, {"compound": "FLRFIGSVIHGIGHLVHHIGVAL-NH2 [Clavaspirin]", "values": [{"measurement": "MIC, E. coli", "setting": "E. coli ATCC 25922; pH 5.5 (I)", "value": 2, "unit": "µM"}, {"measurement": "MIC, E. coli", "setting": "E. coli ATCC 25922; pH 7.4 (II)", "value": 64, "unit": "µM"}, {"measurement": "MIC, P. aeruginosa", "setting": "P. aeruginosa ATCC 15692; pH 5.5 (I)", "value": 32, "unit": "µM"}, {"measurement": "MIC, P. aeruginosa", "setting": "P. aeruginosa ATCC 15692; pH 7.4 (II)", "value": ">64", "unit": "µM"}, {"measurement": "MIC, B. subtilis", "setting": "[1]; pH 5.5 (I)", "value": 16, "unit": "µM"}, {"measurement": "MIC, B. subtilis", "setting": "[1]; pH 7.4 (II)", "value": 64, "unit": "µM"}, {"measurement": "MIC, L. monocytogenes", "setting": "[2]; pH 5.5 (I)", "value": 16, "unit": "µM"}, {"measurement": "MIC, L. monocytogenes", "setting": "[2]; pH 7.4 (II)", "value": 64, "unit": "µM"}, {"measurement": "MIC, S. epidermidis", "setting": "[3]; pH 5.5 (I)", "value": 4, "unit": "µM"}, {"measurement": "MIC, S. epidermidis", "setting": "[3]; pH 7.4 (II)", "value": 32, "unit": "µM"}, {"measurement": "MIC, S. aureus", "setting": "S. aureus ATCC 29213; pH 5.5 (I)", "value": 16, "unit": "µM"}, {"measurement": "MIC, S. aureus", "setting": "S. aureus ATCC 29213; pH 7.4 (II)", "value": 64, "unit": "µM"}, {"measurement": "MIC, P. vulgaris", "setting": "[4]; pH 5.5 (I)", "value": 8, "unit": "µM"}, {"measurement": "MIC, P. vulgaris", "setting": "[4]; pH 7.4 (II)", "value": 64, "unit": "µM"}, {"measurement": "MIC, S. typhimurium", "setting": "[5]; pH 5.5 (I)", "value": 32, "unit": "µM"}, {"measurement": "MIC, S. typhimurium", "setting": "[5]; pH 7.4 (II)", "value": 64, "unit": "µM"}, {"measurement": "HC10 (hemolytic activity)", "setting": "[6]", "value": 37}, {"measurement": "HC50 (hemolytic activity)", "setting": "[6]", "value": 64}, {"measurement": "EC10 (effective concentration in HaCaT cells)", "setting": "[7]", "value": 66}]}]}
